The experiment deals with T1, NcLPMO9F (Neurospora crassa, UniProt Q1K4Q1).
T1 construct: gene gh61-6; recombinant secreted from Pichia pastoris X-33, column purified; 23,200 g/mol
T1 sequence (Q1K4Q1 18-231): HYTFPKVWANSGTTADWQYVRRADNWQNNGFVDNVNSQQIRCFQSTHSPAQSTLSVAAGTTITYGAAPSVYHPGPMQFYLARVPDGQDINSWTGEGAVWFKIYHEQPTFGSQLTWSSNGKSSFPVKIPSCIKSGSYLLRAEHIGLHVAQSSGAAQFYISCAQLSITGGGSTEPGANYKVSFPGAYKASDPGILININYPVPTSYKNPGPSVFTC
The experiment is described as follows: spectrophotometric peroxidase assay at […] nm (coerulignone formation). Format: biochemical. The conditions noted are these: H2O2 cosubstrate, standard conditions (30 °C); turnover only.

For `COc1cccc(OC)c1O` [2,6-dimethoxyphenol], the specific activity entry was “The peroxidase activity was found for three different LPMOs from two different organisms”.
